From patent US12617773B2, “Azetidin-3-ylmethanol derivatives as CCR6 receptor modulators” (Idorsia Pharmaceuticals Ltd, priority 2020, dated 2026) come the findings set out here.

Structures are written as SMILES.

The first assay addresses T1, human CCR6 (Homo sapiens, UniProt P51684).
T1 construct: expressed in transfected cells; host or cells: HEK-293
T1 sequence (P51684 1-374): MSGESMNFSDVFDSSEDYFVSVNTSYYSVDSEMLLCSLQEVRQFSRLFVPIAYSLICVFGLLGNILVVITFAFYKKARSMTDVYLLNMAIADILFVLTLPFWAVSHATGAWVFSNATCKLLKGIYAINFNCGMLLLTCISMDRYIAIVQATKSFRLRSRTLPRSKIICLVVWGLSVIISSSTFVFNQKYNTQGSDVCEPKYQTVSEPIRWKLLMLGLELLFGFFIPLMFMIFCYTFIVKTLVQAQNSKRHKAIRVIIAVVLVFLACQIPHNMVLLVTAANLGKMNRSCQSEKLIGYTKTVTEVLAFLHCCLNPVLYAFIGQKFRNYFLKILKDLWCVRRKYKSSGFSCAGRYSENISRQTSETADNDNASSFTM
Nature of the assay: FLIPR assay (inhibition of CCL20-induced calcium signal). The assay is classed as cell-based. The settings on record: FLIPR IC50 (nM), HEK-293 cells expressing human CCR6; mean values where determined several times. In outline:
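Dye-loaded HEK-293 cells expressing human CCR6 were preincubated with compound for 30 min at room temperature in the dark, then challenged with 10 nM CCL20 (final). Fluorescence was tracked on FLIPR, and baseline-subtracted peak emission over base after agonist addition gave inhibition dose-response curves for IC50.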
With `CN1CC(C)(C(O)(c2ccc(C(C)(C)C)cc2)c2cncc(N3CCCC3)c2)C1` (stereo not drawn) [Example 157], the IC50 worked out at 27.7 nM.

Still in this assay, the particulars now being: HEK-293 cells expressing human CCR6; mean values where determined several times; read-out: FLIPR IC50.
With `CC(C)c1ccc([C@](O)(c2cncc(-c3noc(COC4CCOCC4)n3)c2)C2(C)CN(C)C2)cc1` [Example 126], the 50% inhibitory concentration (IC50) was found to be 84.9 nM.
Same read-out and setting: the same measure for `CC(C)c1ccc([C@](O)(c2cncc(-c3noc(C(C)(C)C4CCOCC4)n3)c2)C2(C)CN(C)C2)cc1` [Example 127]: 32.4 nM; for `CC(C)c1ccc([C@](O)(c2cncc(-c3noc(CCC4CCOCC4)n3)c2)C2(C)CN(C)C2)cc1` [Example 128]: 40.3 nM; for `CC(C)c1ccc([C@](O)(c2cncc(-c3noc(C4(O)CCC4)n3)c2)C2(C)CN(C)C2)cc1` [Example 129]: 35.9 nM.
For the compound `CC(C)c1ccc([C@](O)(c2cncc(-c3noc(CC(C)(C)O)n3)c2)C2(C)CN(C)C2)cc1` [Example 130], the concentration for half-maximal inhibition (IC50) amounted to 74.7 nM.
As for `CC(C)c1ccc([C@](O)(c2cncc(-c3noc(C4CC5CCC4O5)n3)c2)C2(C)CN(C)C2)cc1` (stereo partly drawn) [Example 131], the IC50 was determined as 60.8 nM.
On the same count and under the same terms, in the case of `CC(C)c1ccc([C@](O)(c2cncc(-c3noc(COC4(C)CCOCC4)n3)c2)C2(C)CN(C)C2)cc1` [Example 132] it was 50.1 nM.
Turning to `CC(C)c1ccc([C@](O)(c2cncc(-c3noc(C4COC4)n3)c2)C2(C)CN(C)C2)cc1` [Example 133], the IC50 was 74.5 nM.
The same measure, in the same setting: in the case of `COCC(C)(C)c1nc(-c2cncc([C@@](O)(c3ccc(C(C)C)cc3)C3(C)CN(C)C3)c2)no1` [Example 134, (R)-(1,3-Dimethyl-azetidin-3-yl)-(4-isopropyl-phenyl)-{5-[5-(2-methoxy-1,1-dimethyl-ethyl)-[1,2,4]oxadiazol-3-yl]-pyridin-3-yl}-methanol] it was 62 nM; in that of `CC(C)c1ccc([C@](O)(c2cncc(-c3noc(C(C)(C)CO)n3)c2)C2(C)CN(C)C2)cc1` [Example 135], 74 nM; in that of `COC(C)(C)Cc1nc(-c2cncc([C@@](O)(c3ccc(C(C)C)cc3)C3(C)CN(C)C3)c2)no1` [Example 136], 123 nM.
Same read-out and setting: the same measure for `CC(C)c1ccc([C@](O)(c2cncc(-c3noc(CC4(O)CCC4)n3)c2)C2(C)CN(C)C2)cc1` [Example 137]: 60.3 nM.
Still for that read-out and setting: the same measure for `COCC1(Cc2nc(-c3cncc([C@@](O)(c4ccc(C(C)C)cc4)C4(C)CN(C)C4)c3)no2)CC1` [Example 138]: 45.8 nM; for `CC(C)c1ccc([C@](O)(c2cncc(-c3noc(CCn4cccn4)n3)c2)C2(C)CN(C)C2)cc1` [Example 139, (R)-(1,3-Dimethyl-azetidin-3-yl)-(4-isopropyl-phenyl)-{5-[5-(2-pyrazol-1-yl-ethyl)-[1,2,4]oxadiazol-3-yl]-pyridin-3-yl}-methanol]: 66.6 nM; for `[2H]C([2H])([2H])C(=O)NCCc1nc(-c2cncc([C@@](O)(c3ccc(C(C)C)cc3)C3(C)CN(C)C3)c2)no1` [Example 140, (R)—N-(2-(3-(5-((1,3-dimethylazetidin-3-yl)(hydroxy)(4-isopropylphenyl)methyl)pyridin-3-yl)-1,2,4-oxadiazol-5-yl)ethyl)acetamide-2,2,2-d3]: 681 nM.
Turning to `[2H]C([2H])([2H])C(=O)NC(C)(C)Cc1nc(-c2cncc([C@@](O)(c3ccc(C(C)C)cc3)C3(C)CN(C)C3)c2)no1` [Example 141], the IC50 came to 211 nM.
The same measure, in the same setting: the same measure for `CC(C)c1ccc([C@](O)(c2cncc(-c3noc(C4CCN(C(=O)CO)CC4)n3)c2)C2(C)CN(C)C2)cc1` [Example 142]: 274 nM; for `[2H]C([2H])([2H])C(=O)N1CCC(c2nc(-c3cncc([C@@](O)(c4ccc(C(C)C)cc4)C4(C)CN(C)C4)c3)no2)CC1` [Example 143]: 188 nM; for `CC(C)c1ccc([C@](O)(c2cncc(-c3noc(CCN(C)C(=O)CO)n3)c2)C2(C)CN(C)C2)cc1` [Example 144, N-[2-(3-{5-[(R)-(1,3-Dimethyl-azetidin-3-yl)-hydroxy-(4-isopropyl-phenyl)-methyl]-pyridin-3-yl}-[1,2,4]oxadiazol-5-yl)-ethyl]-2-hydroxy-N-methyl-acetamide]: 376 nM.
In the case of `[2H]C([2H])([2H])C(=O)N(C)CCc1nc(-c2cncc([C@@](O)(c3ccc(C(C)C)cc3)C3(C)CN(C)C3)c2)no1` [Example 145, (R)—N-(2-(3-(5-((1,3-dimethylazetidin-3-yl)(hydroxy)(4-isopropylphenyl)methyl)pyridin-3-yl)-1,2,4-oxadiazol-5-yl)-ethyl)-N-methylacetamide-d3], the IC50 amounted to 274 nM.
For `COc1ccc(C(O)(c2ccc(OC(F)(F)F)cc2)C2(C)CN(C)C2)cn1` (stereo not drawn) [Example 146, (1,3-Dimethyl-azetidin-3-yl)-(6-methoxy-pyridin-3-yl)-(4-trifluoromethoxy-phenyl)-methanol], the concentration for half-maximal inhibition (IC50) is 309 nM.
As to `CN1CC(C)(C(O)(c2ccc(OC(F)(F)F)cc2)c2ccc(Oc3ccccc3)nc2)C1` (stereo not drawn) [Example 147], the IC50 stood at 63.5 nM.
On the same count and under the same terms, in the case of `CCCc1ccc(C(O)(c2cncc(N3CCCC3)c2)C2(C)CN(C)C2)cc1` (stereo not drawn) [Example 150, (1,3-Dimethyl-azetidin-3-yl)-(4-propyl-phenyl)-(5-pyrrolidin-1-yl-pyridin-3-yl)-methanol] it was 35.8 nM; in that of `COc1ccc(C(O)(c2cncc(N3CCCC3)c2)C2(C)CN(C)C2)cc1` (stereo not drawn) [Example 151], 336 nM.
Same read-out and setting: the same measure for `CCc1ccc(C(O)(c2cncc(N3CCCC3)c2)C2(C)CN(C)C2)cc1` (stereo not drawn) [Example 152]: 60.2 nM; for `CN1CC(C)(C(O)(c2ccccc2)c2cncc(N3CCCC3)c2)C1` (stereo not drawn) [Example 153]: 214 nM.
On the same count and under the same terms, the same measure for `CN1CC(C)(C(O)(c2ccc(C3CCC3)cc2)c2cncc(N3CCCC3)c2)C1` (stereo not drawn) [Example 154]: 36.8 nM; for `CN1CC(C)(C(O)(c2ccc(OC3CCC3)cc2)c2cncc(N3CCCC3)c2)C1` (stereo not drawn) [Example 155]: 28 nM; for `CCOc1ccc(C(O)(c2cncc(N3CCCC3)c2)C2(C)CN(C)C2)cc1` (stereo not drawn) [Example 156]: 147 nM.
For `CC(C)Oc1ccc(C(O)(c2cncc(N3CCCC3)c2)C2(C)CN(C)C2)cc1` (stereo not drawn) [Example 158], the IC50 is 222 nM.
Consider `CN1CC(C)(C(O)(c2ccc(C3(C(F)(F)F)CC3)cc2)c2cncc(N3CCCC3)c2)C1` (stereo not drawn) [Example 159], for which the IC50 was 91.6 nM.
For the compound `CN1CC(C)(C(O)(c2ccc(C3(C)CC3)cc2)c2cncc(N3CCCC3)c2)C1` (stereo not drawn) [Example 160], the IC50 was determined as 82.9 nM.
On the same count and under the same terms, the same measure for `CN1CC(C)(C(O)(c2ccc(OC3CC3)cc2)c2cncc(N3CCCC3)c2)C1` (stereo not drawn) [Example 161]: 202 nM.
Same read-out and setting: in the case of `CC(C)c1ccc([C@](O)(c2ccnc(N3CCC(F)(F)C3)c2)C2(C)CN(C)C2)cc1` [Example 162, (S)-[2-(3,3-Difluoro-pyrrolidin-1-yl)-pyridin-4-yl]-(1,3-dimethyl-azetidin-3-yl)-(4-isopropyl-phenyl)-methanol] it was 43.4 nM.
Same read-out and setting: the same measure for `CC(C)c1ccc([C@](O)(c2ccnc(N3C[C@@H](F)[C@@H](F)C3)c2)C2(C)CN(C)C2)cc1` [Example 163, (S)-[2-((3R,4S)-3,4-Difluoro-pyrrolidin-1-yl)-pyridin-4-yl]-(1,3-dimethyl-azetidin-3-yl)-(4-isopropyl-phenyl)-methanol]: 24.6 nM.

One may read the IC50 as the concentration at which inhibition is half-maximal.
